Data on eight compounds can be found in publication PMC12837517, “Valorization of Onion-Processing Waste: Digestive Fate, Bioavailability, and Cellular Antioxidant Properties of Red and Yellow Peels Polyphenols” (Antioxidants, 2025).

Like-named read-outs stand apart in the source and are kept apart here. Marks after values point to notes of the source that are not given here.

On the set-up of data set [1]: method as in PMID 34388527. The settings on record: at room temperature; cited from earlier work.
A short description of data set [2]: Two-step in vitro gastrointestinal digestion, digestive stability of polyphenols. The class given is in vitro ADME. The settings on record: for Digestive Stability (%) Gastric %: after gastric phase (pepsin, pH 2.5, 37 °C, 1 h); for Digestive Stability (%) Intestinal %: after small intestinal phase (pH 6.5, 37 °C, 2 h). As for the experimental part: The digestive stability of polyphenols was assessed using a two-step in vitro gastrointestinal digestion model, as described by Cardinali et al.. Aliquots (3 mL) of aqueous onion peel extracts (500 μg/mL total polyphenols, determined by HPLC-DAD) were diluted with 4.5 mL of 0.9% NaCl at pH 7. The gastric phase was initiated with addition of 0.9 mL of porcine pepsin solution (40 mg/mL) in 0.1 N HCl and adjustment of pH to 2.5 ± 0.1 with 1 N HCl. Samples were incubated at 37 °C for 1 h. Following gastric digestion, the small intestinal phase was initiated by adjusting the pH of gastric digesta to 5.3 with 100 mM NaHCO3 and 1 N NaOH, followed by the addition of 2.7 mL of small intestinal enzyme solution (lipase 2 mg/mL, pancreatin 4 mg/mL, and bile 24 mg/mL in 100 mM NaHCO3). The final sample pH was adjusted to 6.5 ± 0.1 with 1 N NaOH, the volume was standardized to 15 mL with saline solution (0.9% NaCl), and the sample was incubated at 37 °C for 2 h. After both digestion steps (gastric and small intestinal), the samples were collected and centrifuged (10,000× g, 1 h, 4 °C), filtered (0.45 μm), and then analyzed by HPLC-DAD. Digestive stability (%) was calculated by comparing pre- and post-digestion polyphenol content.

Data set [3] can be described thus: Transport of polyphenols across differentiated Caco-2 monolayers (apical stability, basolateral bioavailability, Papp). The settings on record: human, Caco-2. Background: Caco-2 cells form a polarised layer with tight junctions and transporters.
Description: (§1) To determine how effectively specific polyphenols might be absorbed through the human intestine, an in vitro assay was conducted utilizing the Caco-2 cell line, which, when fully differentiated, mimics the human intestinal barrier, as described by D’Antuono et al. [16]. […] The cells were maintained for 21 days in a standard culture condition to ensure complete differentiation into a tight monolayer. The medium in both the apical and basolateral compartments was refreshed twice weekly.
(§2) The development of a robust epithelial barrier was confirmed by measuring the Transepithelial Electrical Resistance (TEER) using a volt–ohm meter. […] Prior to the experiment, the monolayers were rinsed with a pH 5.5 PBS. The apical chamber then received 2 mL of phenol red-free DMEM containing hydroalcoholic extracts from red and yellow onion peels, adjusted to a final total polyphenol concentration of 60 μg/mL and 30 μg/mL, respectively. The system was incubated at 37 °C, and samples from both the apical and basolateral chambers were collected for 30, 60, 90, and 120 min to track the time-dependent flux of the compounds. These samples were flash-frozen at −80 °C pending High-Performance Liquid Chromatography (HPLC) analysis.
(§3) For the assessment of polyphenol accumulation within the Caco-2 cells, the monolayers were first subjected to a sequential wash with PBS pH 5.5, and then with a solution of 0.1% fatty acid-free bovine albumin in PBS pH 5.5. The cells were then mechanically harvested into 1 mL of cold PBS pH 5.5 and stored at −80 °C under a nitrogen atmosphere. […] Polyphenols were chemically isolated from the sonicated Caco-2 cells and the basolateral solutions via a liquid–liquid extraction technique, employing ethyl acetate EtOAc stabilized with 0.01% butylated hydroxytoluene (BHT). This extraction was repeated three times, and the pooled organic layers were dried under vacuum before being dissolved in 200 μL mobile phase for HPLC analysis.
The subject of data set [4] is Caco-2 cell monolayer. The description is as above.
Description: as §1, §2, §3
For another data set, the system named is Caco-2 cells. Description: Polyphenol accumulation within Caco-2 cells (uptake). In kind it is in vitro ADME, human.
Data set [5] concerns Caco-2 cell monolayer.
Description: as §1, §2, §3
The mark [6] stands for this setting: red onion peels “Rossa di Tropea” extract.
[7] abbreviates: yellow onion peels “Recas” extract.
Setting [8] is: yellow onion peels extract, 30-120 min.
Setting [9] is: yellow onion peels extract, 30 min (maximum).
The mark [10] stands for this setting: yellow onion peels “Recas” extract, listed as quercetin aglycone.

Description for Caco-2 cells: as §1, §2, §3

As to `O=C1c2c(O)cc(O)cc2OC(c2ccc(O)c(O)c2)C1O` (stereo not shown) [taxifolin], the solubility in data set [1] was 0.1%.
In general, Papp A→B refers to the apparent permeability from the apical to the basolateral side of a cell layer. A word on the bioavailability: it is the share of a dose that reaches the circulation, judged against a reference dose that is usually intravenous. Lower therefore signals little systemic uptake. Turning to `O=C(O)c1ccc(O)c(O)c1` [Protocatechuic acid], in data set [2] (in both onion varieties, phase not specified, read-out: recovery after digestion), the recovery is greater than 100%. Also, in data set [2] (setting [6]), the “Digestive Stability (%) Gastric %” value is greater than 100.00% and the “Digestive Stability (%) Intestinal %” value is greater than 100.00%. For the same compound, in data set [2] (setting [7]), the “Digestive Stability (%) Gastric %” value is reported as 90.32 ± 4.41 ^b % and the “Digestive Stability (%) Intestinal %” value is >100.00 ^a %. Also, in data set [3], the Papp A→B at 120 min, 30 µg/mL total polyphenols is 8.4 ×10⁻⁶ cm/s; the bioavailability at 90 min, 30 µg/mL total polyphenols stood at 6.8%; the bioavailability at 120 min, 30 µg/mL total polyphenols was 7.7%. Besides, the “stability in apical culture medium over time” value in the data set on Caco-2 cell monolayer [4] (setting [8]) is on record as “consistent stability”. Besides, the cellular accumulation in the data set with Caco-2 cells (red onion peels extract, 30 min) is on record as 0.013 ng/µg protein. The same compound came in with a cellular accumulation in the data set with Caco-2 cells (setting [9]) of 0.050 ng/µg protein.
On to `O=c1c(O)c(-c2ccc(O[C@@H]3O[C@H](CO)[C@@H](O)[C@H](O)[C@H]3O)c(O)c2)oc2cc(O[C@@H]3O[C@H](CO)[C@@H](O)[C@H](O)[C@H]3O)cc(O)c12` [Quercetin 7,4′-diglucoside], for which the “Papp (apical-to-basolateral)” value with Caco-2 cell monolayer [5] worked out at 5.9 ×10⁻⁶ cm/s.
In the data set with Caco-2 cells (red onion peels extract, 120 min), `COc1cc(-c2oc3cc(O)cc(O)c3c(=O)c2O)ccc1O` [isorhamnetin] displayed a cellular accumulation of 0.040 ng/µg protein.
As to `OC[C@H]1O[C@@H](Oc2cc3c(O)cc(O)cc3[o+]c2-c2ccc(O)c(O)c2)[C@H](O)[C@@H](O)[C@@H]1O` [Cyanidin 3-glucoside], in the data set on Caco-2 cell monolayer [4] (red onion peels extract), the “Papp (apical-to-basolateral)” value worked out at 5.1 ×10⁻⁶ cm/s. The “detection in basolateral compartment” value in the data set with Caco-2 cell monolayer [4] (red onion peels extract, 30-120 min) is “present in the basolateral side at 60 and 120 min”.
For `O=c1c(O)c(-c2ccc(O[C@@H]3O[C@H](CO)[C@@H](O)[C@H](O)[C@H]3O)c(O)c2)oc2cc(O)cc(O)c12` [Spiraeoside, quercetin-4′-O-glucoside], in data set [2] (setting [6]), the “Digestive Stability (%) Gastric %” value is on record as 99.51 ± 3.50 ^a % and the “Digestive Stability (%) Intestinal %” value is 39.97 ± 6.96 ^b %. Besides, in data set [2] (setting [7]), the “Digestive Stability (%) Gastric %” value is listed as 81.11 ± 6.54 ^a % and the “Digestive Stability (%) Intestinal %” value is reported as 36.76 ± 3.49 ^b %. Besides, in data set [3], the Papp A→B at 120 min, 30 µg/mL total polyphenols is 5.5 ×10⁻⁶ cm/s; the bioavailability at 90 min, 30 µg/mL total polyphenols is roughly 8%; the bioavailability at 120 min, 30 µg/mL total polyphenols is roughly 8%; the recovery at 30 min, 60 μg/mL total polyphenols was determined as 78%. The recovery at 120 min, 60 μg/mL total polyphenols in data set [3] was 62%. Besides, the cellular accumulation with Caco-2 cells (red onion peels extract, 90 min (maximum)) is given as 0.142 ng/µg protein. In the data set with Caco-2 cells (setting [9]), the cellular accumulation came out at 0.162 ng/µg protein.
On to `O=c1c(O[C@@H]2O[C@H](CO)[C@@H](O)[C@H](O)[C@H]2O)c(-c2ccc(O[C@@H]3O[C@H](CO)[C@@H](O)[C@H](O)[C@H]3O)c(O)c2)oc2cc(O)cc(O)c12` [Quercetin 3,4′-diglucoside], for which, in the data set on Caco-2 cell monolayer [5], the “Papp (apical-to-basolateral)” value came to 6.1 ×10⁻⁶ cm/s.
Take `O=c1c(O)c(-c2ccc(O)c(O)c2)oc2cc(O)cc(O)c12` [Quercetin]: in data set [2] (setting [6]), the “Digestive Stability (%) Gastric %” value is 32.34 ± 3.97 ^a % and the “Digestive Stability (%) Intestinal %” value was 15.37 ± 2.55 ^b %. In data set [2] (setting [7]), the “Digestive Stability (%) Gastric %” value was 3.44 ± 0.56 ^b % and the “Digestive Stability (%) Intestinal %” value was 15.64 ± 0.96 ^a %. For the same compound, in data set [2] (setting [10]), the “Digestive Stability (%) Gastric %” value was 3.44% and the “Digestive Stability (%) Intestinal %” value came to 15.64%. Besides, in data set [3], the Papp A→B at 120 min, 60 µg/mL total polyphenols turned out to be 1.1 ×10⁻⁶ cm/s; the bioavailability at 60 min, 60 µg/mL total polyphenols came out at 0.6%; the recovery at 30 min, 60 μg/mL total polyphenols turned out to be 38%; the recovery at 120 min, 60 μg/mL total polyphenols was determined as 7%. For the same compound, in the data set with Caco-2 cell monolayer [4] (setting [8]), the “detection in basolateral compartment” value was “not detected”. This compound returned a maximum cellular accumulation in the data set on Caco-2 cells (red onion peels extract, time not stated) of 1.468 ng/µg protein.
